Experiments:
Assay type in all cases: cell-based
human TLR9 = biological target: T1, human TLR9 (Homo sapiens, UniProt Q9NR96); assay: TLR7/8/9 Inhibition Reporter Assays (TLR9); conditions: HEK-Blue cells overexpressing human TLR9, SEAP reporter, stimulated with TLR9 ligand ODN2006
T1 construct: host or cells: HEK-Blue cells (HEK293-derived reporter line)
T1 sequence (Q9NR96 26-1032): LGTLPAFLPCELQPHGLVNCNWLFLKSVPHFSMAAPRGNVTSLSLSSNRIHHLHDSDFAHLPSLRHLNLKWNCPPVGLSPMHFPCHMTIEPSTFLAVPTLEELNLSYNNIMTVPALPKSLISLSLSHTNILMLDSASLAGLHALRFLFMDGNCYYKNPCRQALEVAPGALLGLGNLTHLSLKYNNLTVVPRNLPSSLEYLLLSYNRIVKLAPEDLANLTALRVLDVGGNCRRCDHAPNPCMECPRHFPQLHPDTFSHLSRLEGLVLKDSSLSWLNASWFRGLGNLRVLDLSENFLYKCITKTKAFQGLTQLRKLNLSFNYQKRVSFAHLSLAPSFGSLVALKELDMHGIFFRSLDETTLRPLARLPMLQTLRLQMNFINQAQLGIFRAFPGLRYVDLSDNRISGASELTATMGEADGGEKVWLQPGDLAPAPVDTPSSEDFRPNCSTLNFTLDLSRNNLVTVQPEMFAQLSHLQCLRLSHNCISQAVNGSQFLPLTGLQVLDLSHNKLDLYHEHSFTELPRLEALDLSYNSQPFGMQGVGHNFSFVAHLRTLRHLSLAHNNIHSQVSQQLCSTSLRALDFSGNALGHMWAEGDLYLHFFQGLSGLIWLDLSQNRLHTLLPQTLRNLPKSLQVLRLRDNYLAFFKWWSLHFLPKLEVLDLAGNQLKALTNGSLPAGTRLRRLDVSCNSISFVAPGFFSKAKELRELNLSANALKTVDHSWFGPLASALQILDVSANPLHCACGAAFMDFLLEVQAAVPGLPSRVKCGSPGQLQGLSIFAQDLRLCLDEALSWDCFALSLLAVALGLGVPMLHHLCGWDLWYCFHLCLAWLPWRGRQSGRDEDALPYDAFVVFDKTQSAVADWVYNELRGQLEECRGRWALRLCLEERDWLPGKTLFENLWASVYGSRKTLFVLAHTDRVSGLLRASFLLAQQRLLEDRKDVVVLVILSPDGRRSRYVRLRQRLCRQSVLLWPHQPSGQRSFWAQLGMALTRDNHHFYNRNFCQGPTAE
Procedure, shortened: (§1)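 HEK-Blue cells overexpressing human TLR7, TLR8 or TLR9 with NF-κB/AP-1-driven SEAP reporter, pre-treated 60 min with compound ([…]). Stimulated with […] (TLR7), […] (TLR8) or ODN2006 200 nM (TLR9), then 22 h at 37° C; SEAP measured, % inhibition relative to agonist-plus-DMSO and known-inhibitor wells.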

human TLR8 = biological target: T2, human TLR8 (Homo sapiens, UniProt Q9NR97); assay: TLR7/8/9 Inhibition Reporter Assays (TLR8); conditions: HEK-Blue cells overexpressing human TLR8, SEAP reporter, stimulated with TLR8 ligand R848
T2 construct: host or cells: HEK-Blue cells (HEK293-derived reporter line)
T2 sequence (Q9NR97 27-1041): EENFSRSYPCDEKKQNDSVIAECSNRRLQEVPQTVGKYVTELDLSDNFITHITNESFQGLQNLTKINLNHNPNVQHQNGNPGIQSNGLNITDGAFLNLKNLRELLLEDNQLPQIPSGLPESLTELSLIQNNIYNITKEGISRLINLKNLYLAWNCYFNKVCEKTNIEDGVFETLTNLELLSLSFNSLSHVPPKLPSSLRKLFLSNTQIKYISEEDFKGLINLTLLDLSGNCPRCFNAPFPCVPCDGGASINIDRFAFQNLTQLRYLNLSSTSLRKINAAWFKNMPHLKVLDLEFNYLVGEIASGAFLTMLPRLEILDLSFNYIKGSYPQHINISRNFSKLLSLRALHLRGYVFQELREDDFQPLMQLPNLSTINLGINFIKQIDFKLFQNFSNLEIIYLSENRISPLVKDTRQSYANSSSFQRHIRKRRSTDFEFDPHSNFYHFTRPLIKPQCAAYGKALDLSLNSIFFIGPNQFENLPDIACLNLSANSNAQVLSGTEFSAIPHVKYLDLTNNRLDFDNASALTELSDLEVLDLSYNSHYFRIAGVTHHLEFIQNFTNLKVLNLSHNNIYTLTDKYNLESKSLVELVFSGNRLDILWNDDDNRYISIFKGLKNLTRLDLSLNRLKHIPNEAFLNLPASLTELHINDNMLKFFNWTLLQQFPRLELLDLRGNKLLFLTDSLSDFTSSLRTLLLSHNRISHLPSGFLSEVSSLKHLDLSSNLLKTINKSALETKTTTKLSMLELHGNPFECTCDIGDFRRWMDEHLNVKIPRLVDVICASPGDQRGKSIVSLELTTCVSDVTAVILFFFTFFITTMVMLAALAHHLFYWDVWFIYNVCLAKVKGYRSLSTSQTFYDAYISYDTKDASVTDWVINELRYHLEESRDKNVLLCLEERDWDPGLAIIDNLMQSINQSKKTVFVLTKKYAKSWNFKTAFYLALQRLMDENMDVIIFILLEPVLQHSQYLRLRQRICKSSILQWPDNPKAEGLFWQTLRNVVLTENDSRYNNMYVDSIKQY
Procedure, shortened: as §1

human TLR7 = biological target: T3, human TLR7 (Homo sapiens, UniProt Q9NYK1); assay: TLR7/8/9 Inhibition Reporter Assays (TLR7); conditions: HEK-Blue cells overexpressing human TLR7, SEAP reporter, stimulated with TLR7 ligand gardiquimod
T3 construct: host or cells: HEK-Blue cells (HEK293-derived reporter line)
T3 sequence (Q9NYK1 27-1049): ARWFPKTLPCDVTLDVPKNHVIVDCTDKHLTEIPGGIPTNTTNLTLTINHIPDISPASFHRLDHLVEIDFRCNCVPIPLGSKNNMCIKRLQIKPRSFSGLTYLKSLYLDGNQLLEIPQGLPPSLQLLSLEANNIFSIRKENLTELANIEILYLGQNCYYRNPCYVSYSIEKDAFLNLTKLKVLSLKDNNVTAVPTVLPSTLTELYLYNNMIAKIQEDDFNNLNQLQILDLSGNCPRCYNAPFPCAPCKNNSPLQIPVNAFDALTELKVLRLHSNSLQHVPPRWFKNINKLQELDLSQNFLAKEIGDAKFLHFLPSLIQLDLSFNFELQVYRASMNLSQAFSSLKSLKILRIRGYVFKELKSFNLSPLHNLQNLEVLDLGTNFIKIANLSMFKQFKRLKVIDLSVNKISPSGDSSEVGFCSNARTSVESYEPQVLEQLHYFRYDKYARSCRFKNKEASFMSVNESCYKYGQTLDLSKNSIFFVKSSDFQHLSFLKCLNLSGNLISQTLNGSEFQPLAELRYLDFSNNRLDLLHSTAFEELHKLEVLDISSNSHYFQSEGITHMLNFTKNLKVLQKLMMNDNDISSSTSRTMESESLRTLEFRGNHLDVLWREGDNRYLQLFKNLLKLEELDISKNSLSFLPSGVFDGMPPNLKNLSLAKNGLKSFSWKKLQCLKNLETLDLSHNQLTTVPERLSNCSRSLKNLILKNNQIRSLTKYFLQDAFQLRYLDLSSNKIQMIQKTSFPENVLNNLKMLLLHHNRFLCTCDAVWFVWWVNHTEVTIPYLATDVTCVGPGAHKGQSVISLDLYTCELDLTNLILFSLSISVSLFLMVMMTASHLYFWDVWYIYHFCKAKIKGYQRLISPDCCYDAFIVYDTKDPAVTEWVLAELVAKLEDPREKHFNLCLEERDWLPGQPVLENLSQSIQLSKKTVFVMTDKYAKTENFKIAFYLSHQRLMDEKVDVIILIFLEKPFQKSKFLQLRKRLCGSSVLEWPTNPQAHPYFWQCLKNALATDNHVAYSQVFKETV
Procedure, shortened: as §1

Structure (SMILES)	IC50 (human TLR9) [nM]	IC50 (human TLR8) [nM]	IC50 (human TLR7) [nM]
Cc1cc(-c2nc3c(C)nc(-c4ccc(N5CCN(CC6CC6)CC5)cc4)cc3n2C)cc(C)n1 [Example 15, 6-(4-(4-(cyclopropylmethyl)piperazin-1-yl)phenyl)-2-(2,6-dimethylpyridin-4-yl)-1,4-dimethyl-1H-imidazo[4,5-c]pyridine]	460	18000	1100
Cc1nc(-c2ccc(CN3CCC(N(C)C)CC3)cc2)cc2c1nc(-c1ccc(S(C)(=O)=O)cc1)n2C [Example 45, 1-(4-(1,4-dimethyl-2-(4-(methylsulfonyl)phenyl)-1H-imidazo[4,5-c]pyridin-6-yl)benzyl)-N,N-dimethylpiperidin-4-amine]	72	4900	1000
Cc1nc(-c2ccc(N3CCN(CCCN4CCOCC4)CC3)cc2)cc2c1nc(-c1ccc(S(C)(=O)=O)cc1)n2C [Example 52, 4-(3-(4-(4-(1,4-dimethyl-2-(4-(methylsulfonyl)phenyl)-1H-imidazo[4,5-c]pyridin-6-yl)phenyl)piperazin-1-yl)propyl)morpholine]	28	2600	1700
COc1ccc(-c2nc3c(C)nc(-c4ccc(N5CCN(CC(C)C)CC5)cc4)cc3n2C)cc1OC [Example 17, 2-(3,4-dimethoxyphenyl)-6-(4-(4-isobutylpiperazin-1-yl)phenyl)-1,4-dimethyl-1H-imidazo[4,5-c]pyridine]	460	12000	4400
COC1CCN(Cc2ccc(-c3ccc(-c4cc5c(nc(-c6ccc(S(C)(=O)=O)cc6)n5C)c(C)n4)cc3)nc2)CC1 [Example 50, 6-(4-(5-((4-methoxypiperidin-1-yl)methyl)pyridin-2-yl)phenyl)-1,4-dimethyl-2-(4-(methylsulfonyl)phenyl)-1H-imidazo[4,5-c]pyridine]	530	> 50000	1100

Other lines, results leading:

IC50 (human TLR9) [nM]	IC50 (human TLR8) [nM]	IC50 (human TLR7) [nM]	Structure (SMILES)
290	2000	1500	CC(C)N1C[C@H]2CN(c3ccc(-c4cc5c(cn4)nc(-c4ccc(S(C)(=O)=O)cc4)n5C4CC4)cc3)C[C@H]2C1 [Example 87, 1-cyclopropyl-6-(4-((3aR,6aS)-5-isopropylhexahydropyrrolo[3,4-c]pyrrol-2(1H)-yl)phenyl)-2-(4-(methylsulfonyl)phenyl)-1H-imidazo[4,5-c]pyridine]
350	890	2100	CC(C)N1CC2(CCN(c3ccc(-c4cc5c(cn4)nc(-c4ccc(S(C)(=O)=O)cc4)n5C)cc3)CC2)C1 [Example 95, 6-(4-(2-isopropyl-2,7-diazaspiro[3.5]nonan-7-yl)phenyl)-1-methyl-2-(4-(methylsulfonyl)phenyl)-1H-imidazo[4,5-c]pyridine]
320	> 50000	9100	COc1ccc(-c2nc3c(C)nc(-c4ccc(N5CC6(C5)CN(C5COC5)C6)cc4)cc3n2C)cc1OC [Example 102, 2-(3,4-dimethoxyphenyl)-1,4-dimethyl-6-(4-(6-(oxetan-3-yl)-2,6-diazaspiro[3.3]heptan-2-yl)phenyl)-1H-imidazo[4,5-c]pyridine]
210	16000	7700	COCCN1CC2(C1)CN(c1ccc(-c3cc4c(nc(-c5ccc(S(C)(=O)=O)cc5)n4C)c(C)n3)cc1)C2 [Example 104, 6-(4-(6-(2-methoxyethyl)-2,6-diazaspiro[3.3]heptan-2-yl)phenyl)-1,4-dimethyl-2-(4-(methylsulfonyl)phenyl)-1H-imidazo[4,5-c]pyridine]
99	640	2400	CS(=O)(=O)c1ccc(-c2nc3cnc(-c4ccc(N5CCN(CCCN6CCOCC6)CC5)cc4)cc3n2C2CC2)cc1 [Example 55, 4-(3-(4-(4-(1-cyclopropyl-2-(4-(methylsulfonyl)phenyl)-1H-imidazo[4,5-c]pyridin-6-yl)phenyl)piperazin-1-yl)propyl) morpholine]
160	6000	650	Cc1nc(-c2ccc(N3CCC4(CC3)CN(C(C)C)C4)cc2)cc2c1nc(-c1ccc(S(C)(=O)=O)cc1)n2C [Example 72, 6-(4-(2-isopropyl-2,7-diazaspiro[3.5]nonan-7-yl)phenyl)-1,4-dimethyl-2-(4-(methylsulfonyl)phenyl)-1H-imidazo[4,5-c]pyridine]
170	5300	1400	Cc1nc(-c2ccc(N3CC4(CCN(C(C)C)CC4)C3)cc2)cc2c1nc(-c1ccc(S(C)(=O)=O)cc1)n2C [Example 63, 6-(4-(7-isopropyl-2,7-diazaspiro[3.5]nonan-2-yl)phenyl)-1,4-dimethyl-2-(4-(methylsulfonyl)phenyl)-1H-imidazo[4,5-c]pyridine]

From patent publication US20250163054A1, “SUBSTITUTED BICYCLIC HETEROARYL COMPOUNDS USEFUL AS INHIBITORS OF TLR9” (Bristol-Myers Squibb Company, priority 2022, published 2025)
